Patent US11071731B2, “Allosteric modulators of the mu opioid receptor” (Chiromics, LLC, priority 2017, dated 2021)

Tests used:
[1] = molecular target: T1, mu opioid receptor (MOR) (Homo sapiens, UniProt P35372); assay: Hit Hunter cAMP signaling assay (adenylyl cyclase inhibition), PAM mode with EC20 endomorphin-1; type: cell-based; details: for allosteric activity for cAMP signaling: EC20 endomorphin-1 concentration of 0.45 nM
[2] = molecular target: T1, mu opioid receptor (MOR); assay: PathHunter β-arrestin recruitment assay, PAM mode with EC20 endomorphin-1; type: cell-based; details: for EC50: read-out: β-arr. EC50; for allosteric activity for β-arrestin recruitment: EC20 endomorphin-1 concentration of 4.5 nM
In short: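 β-Arrestin recruitment to the receptor was tracked by chemiluminescent β-galactosidase activity from complementing fragments (ED on receptor, EA on β-arrestin). Per-compound outputs were EC50 and percent maximal response.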

[3] = adenylyl cyclase inhibition, read-out: cAMP EC50
[4] = maximal response for adenylyl cyclase inhibition
[5] = maximal response for adenylyl cyclase inhibition, Table 3
[6] = maximal response for β-arrestin recruitment
[7] = maximal response for β-arrestin recruitment, Table 3
[8] = β-arrestin recruitment, Table 3
[9] = cAMP EC50, adenylyl cyclase inhibition

T1 sequence (P35372 whole entry): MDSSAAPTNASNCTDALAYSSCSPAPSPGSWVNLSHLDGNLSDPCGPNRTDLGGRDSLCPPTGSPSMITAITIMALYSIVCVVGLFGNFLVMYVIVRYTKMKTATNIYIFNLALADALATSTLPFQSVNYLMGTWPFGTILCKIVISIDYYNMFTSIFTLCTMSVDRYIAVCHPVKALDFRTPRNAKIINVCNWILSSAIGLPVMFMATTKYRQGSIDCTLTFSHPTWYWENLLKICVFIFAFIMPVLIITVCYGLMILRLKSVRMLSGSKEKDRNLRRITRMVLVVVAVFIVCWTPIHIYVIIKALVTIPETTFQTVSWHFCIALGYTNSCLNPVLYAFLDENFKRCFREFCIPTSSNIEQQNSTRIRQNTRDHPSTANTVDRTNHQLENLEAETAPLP

| Structure (SMILES) | EC50 [1, 3] [nM] | cAMP Max. Resp. [1, 4] | β-arr Max. Resp. [2, 6] | EC50 ([2]; β-arrestin recruitment) [nM] | EC50 [1, 9] [nM] | also measured |
| --- | --- | --- | --- | --- | --- | --- |
| CC1CCN(S(=O)(=O)c2ccc(Cl)cc2)C1c1ccc(F)c(C(F)(F)F)c1 (mixture of isomers) [compound 100] | > 2100 | D (D represents a maximal response of < 40%) | F (F represents a maximal response of > 60%) | < 700 |  | EC50 ([1]; adenylyl cyclase inhibition, Table 3, read-out: cAMP EC50): > 25000 nM; cAMP Max Resp. [1, 5]: 25; β-arr. Max Resp. [2, 7]: 76; EC50 [2, 8]: 522 nM |
| Fc1cccc(C2CCCCN2Cc2cc(Cl)ccc2F)n1 (centres unmarked) [compound 171] |  | E (E represents a maximal response of 40-60%) | F (F represents a maximal response of > 60%) | 700 to 2100 | 700 to 2100 |  |
| FC(F)(F)c1cccc(C2CCCCN2c2ccnc(Cl)c2)c1 (centres unmarked) [compound 359] |  | D (D represents a maximal response of < 40%) | D (D represents a maximal response of < 40%) | < 700 | < 700 |  |
| Fc1ccc(CN2CCCCC2c2cccc(C(F)(F)F)n2)cc1Cl (centres unmarked) [compound 161] |  | E (E represents a maximal response of 40-60%) | F (F represents a maximal response of > 60%) | 700 to 2100 | 700 to 2100 |  |
| Cc1nccc(N2CCCCC2c2ccc(F)c(Cl)c2)n1 (centres unmarked) [compound 480] |  |  |  | > 2100 | > 2100 | cAMP Max. Resp. ([1]; maximal response, adenylyl cyclase inhibition): D (D represents a maximal response of < 40%); β-arr Max. Resp. ([2]; maximal response, β-arrestin recruitment): D (D represents a maximal response of < 40%) |
| CN1CCN(c2nc(Cl)ncc2F)C(c2cc(F)cc(C(F)(F)F)c2)C1 (racemic) [Compound 305] | 700 to 2100 | F (F represents a maximal response of > 60%) | F (F represents a maximal response of > 60%) | 700 to 2100 |  |  |
| Fc1cc(C2COCCN2c2nc(Cl)ncc2F)cc(C(F)(F)F)c1 (single isomer, unassigned) [Compound 347] | < 700 | D (D represents a maximal response of < 40%) | D (D represents a maximal response of < 40%) | < 700 |  |  |
| Fc1cc(C2C3CCC(C3)N2c2nc(Cl)ncc2F)cc(C(F)(F)F)c1 (centres unmarked) [compound 139] |  | E (E represents a maximal response of 40-60%) | F (F represents a maximal response of > 60%) | > 2100 | > 2100 |  |
| O=S(=O)(c1ccc(Cl)cc1)N1CCCCC1c1cncc(F)c1 (racemic) [compound 82] | > 2100 | D (D represents a maximal response of < 40%) | D (D represents a maximal response of < 40%) | > 2100 |  |  |
| COc1cc(C2CCCCN2c2nc(Cl)ncc2F)ccn1 (centres unmarked) [compound 275] |  | D (D represents a maximal response of < 40%) | D (D represents a maximal response of < 40%) | > 2100 | > 2100 |  |
| O=S(=O)(c1ccc(Cl)cc1)N1CCCCC1c1ccc(F)c(F)c1 (racemic) [compound 75] | < 700 | E (E represents a maximal response of 40-60%) | F (F represents a maximal response of > 60%) | 700 to 2100 |  |  |
| Fc1cnc(Cl)nc1N1CCCCC1c1cccnc1 (centres unmarked) [compound 373] |  | D (D represents a maximal response of < 40%) | D (D represents a maximal response of < 40%) | < 700 | < 700 |  |
| CN(C)CC(=O)N1CCN(c2nc(Cl)ncc2F)C(c2cc(F)cc(C(F)(F)F)c2)C1 (racemic) [Compound 306] | > 2100 | F (F represents a maximal response of > 60%) | D (D represents a maximal response of < 40%) | > 2100 |  |  |
| COc1ccc(C2CCCCN2c2ncnc(Cl)c2F)cc1Br (centres unmarked) [compound 228] |  | F (F represents a maximal response of > 60%) | F (F represents a maximal response of > 60%) | > 2100 | > 2100 |  |
| Fc1cnc(Cl)nc1N1CCCCC1c1cc(F)c(F)c(F)c1 (centres unmarked) [compound 327] |  | D (D represents a maximal response of < 40%) | D (D represents a maximal response of < 40%) | < 700 | < 700 |  |
| COc1ccc(C2C(F)CCCN2S(=O)(=O)c2ccc(Cl)cc2)cc1Br (centres unmarked) [compound 219] |  | F (F represents a maximal response of > 60%) | F (F represents a maximal response of > 60%) | 700 to 2100 | < 700 | allosteric activity for cAMP signaling [1]: high positive allosteric activity; allosteric activity for β-arrestin recruitment [2]: low positive allosteric activity; signaling preference β-arrestin vs cAMP ([2]; comparison of β-arrestin and cAMP assays): preferential signaling via cAMP over β-arrestin |

| Structure (SMILES) | EC50 [1, 3] [nM] | cAMP Max. Resp. [1, 4] | β-arr Max. Resp. [2, 6] | EC50 ([2]; β-arrestin recruitment) [nM] | EC50 [1, 9] [nM] | also measured |
| --- | --- | --- | --- | --- | --- | --- |
| Oc1nccc(N2CCCCC2c2cccc(C(F)(F)F)c2)n1 (centres unmarked) [compound 401] |  | D (D represents a maximal response of < 40%) | D (D represents a maximal response of < 40%) | < 700 | < 700 |  |
| COc1ccc(C2CCCCN2S(=O)(=O)c2ccccc2)cc1Br (centres unmarked) [compound 14] |  | E (E represents a maximal response of 40-60%) | F (F represents a maximal response of > 60%) | > 2100 | > 2100 | allosteric activity for cAMP signaling [1]: silent allosteric activity; allosteric activity for cAMP signaling ([1]; listed as Compound No. 14): dual silent allosteric modulation; EC50 ([1]; cAMP EC50 (nM), adenylyl cyclase inhibition, Table 3): 9610 nM; cAMP Max Resp. [1, 5]: 43; allosteric activity for β-arrestin recruitment [2]: silent allosteric activity; allosteric activity for β-arrestin recruitment ([2]; listed as Compound No. 14): dual silent allosteric modulation; β-arr. Max Resp. [2, 7]: 111; EC50 [2, 8]: 13200 nM |
| COc1ccc(C2CCCCN2S(=O)(=O)c2ccc(Cl)cc2)cc1Cl (racemic) [compound 51] | 700 to 2100 | F (F represents a maximal response of > 60%) | F (F represents a maximal response of > 60%) | > 2100 |  |  |
| O=S(=O)(c1ccc(Cl)cc1)N1C2CCC(C2)C1c1ccc(F)c(Br)c1 (centres unmarked) [Compound 178] | 700 to 2100 | D (D represents a maximal response of < 40%) | F (F represents a maximal response of > 60%) | < 700 |  |  |
| Cc1ncccc1C1CCCCN1c1nc(Cl)ncc1F (centres unmarked) [compound 407] |  | D (D represents a maximal response of < 40%) | D (D represents a maximal response of < 40%) | < 700 | < 700 |  |
| Fc1cnc(Cl)nc1N1CCCCC1c1ccnc(C(F)(F)F)c1 (centres unmarked) [compound 410] |  | D (D represents a maximal response of < 40%) | D (D represents a maximal response of < 40%) | < 700 | < 700 |  |
| CC[C@@H]1CCCN(c2nc(Cl)ncc2F)[C@@H]1c1ccc(OC)c(Br)c1 (relative stereo) [compound 250] |  | D (D represents a maximal response of < 40%) | F (F represents a maximal response of > 60%) | > 2100 | > 2100 |  |
| COc1ccc(C2N(S(=O)(=O)c3ccc(Cl)cc3)CCC2(F)C(F)(F)F)cc1Br (mixture of isomers) [Compound 103] | 700 to 2100 | D (D represents a maximal response of < 40%) | F (F represents a maximal response of > 60%) | > 2100 |  |  |
| O=S(=O)(c1ccc(Cl)cc1)N1CCCCC1c1ccc(F)nc1 (racemic) [compound 53] | > 2100 | F (F represents a maximal response of > 60%) | F (F represents a maximal response of > 60%) | > 2100 |  |  |
| FC(F)(F)c1cccc(C2CCCCN2c2nccc(Cl)n2)c1 (centres unmarked) [compound 258] |  | F (F represents a maximal response of > 60%) | E (E represents a maximal response of 40-60%) | > 2100 | > 2100 |  |
| O=C1CCN(c2nc(Cl)ncc2F)C(c2cc(F)cc(C(F)(F)F)c2)C1 (centres unmarked) [compound 238] |  | D (D represents a maximal response of < 40%) | E (E represents a maximal response of 40-60%) | > 2100 | > 2100 |  |
| Fc1cnc(Cl)nc1N1CCCCC1c1nc2ccccc2s1 (centres unmarked) [compound 340] |  | D (D represents a maximal response of < 40%) | D (D represents a maximal response of < 40%) | < 700 | < 700 |  |
| COc1ccc(C2CCCCN2c2nc(Cl)ncc2C)cc1Br (centres unmarked) [compound 234] |  | F (F represents a maximal response of > 60%) | F (F represents a maximal response of > 60%) | > 2100 | > 2100 |  |
| Fc1cnc(Cl)nc1N1CCCCC1c1cncc(C(F)(F)F)c1 (centres unmarked) [compound 376] |  | D (D represents a maximal response of < 40%) | D (D represents a maximal response of < 40%) | < 700 | < 700 |  |
| [2H]C1(c2ccc(F)c(Br)c2)C(F)CCCN1Cc1cccc(Cl)c1 (centres unmarked) [compound 203] |  | D (D represents a maximal response of < 40%) | F (F represents a maximal response of > 60%) | > 2100 | < 700 |  |
| Fc1cnc(Cl)nc1N1CCCCC1c1ccc(C(F)(F)F)nc1 (centres unmarked) [compound 413] |  | D (D represents a maximal response of < 40%) | D (D represents a maximal response of < 40%) | < 700 | < 700 |  |
